Measurements published in patent publication EP4700018A1, “NAV1.8 INHIBITORS, PREPARATION METHOD THEREFOR AND USE THEREOF” (Shanghai Institute of Materia Medica, Chinese Academy of …, priority 2023, dated 2024).

How the values were obtained:
[1] = molecular target: human Nav1.8 sodium channel (Homo sapiens, UniProt Q9Y5Y9); assay: Blocking activity on sodium channel 1.8 (Nav1.8), whole-cell manual patch clamp; format: cell-based; conditions: for inhibition at 0.001 µM: read-out: inhibition Percent @1 nM, 1 nM compound; for inhibition Percent @1 nM: 1 nM compound, 0.001 µM; for inhibition at 0.03 µM: read-out: inhibition Percent @30 nM, 30 nM compound; for inhibition at 0.01 µM: read-out: inhibition Percent @10 nM, 10 nM compound
[2] = In vivo pharmacokinetics in rats, single intravenous injection or oral gavage; conditions: male, SD, plasma, Rat; for Vd: read-out: Vss
Method: The in vivo pharmacokinetics in rats were evaluated via a single intravenous injection or oral gavage administration in this test example. • 1. Test Methods and Conditions: Male SD rats were fasted overnight and administered a single intravenous dose of 2 mg/kg or 1 mg/kg of the test compound (solvent for Intravenous administration was 5% DMSO/10% Solutol® HS 15/10% EtOH/75% saline, with a dosing volume of 5 mL/kg) and an oral gavage dose of 10 mg/kg or 5 mg/kg of the test compound (solvent for administration was 0.5% CMC-Na, with a dosing volume of 10 mL/kg), respectively. • 2. Sampling Information: Blood samples (0.2 mL) were collected from the retroorbital venous plexus at the designated time points: 0.25, 0.5, 1.0, 2.0, 3.0, 4.0, 6.0, 8.0, and 24 hours before and after dosing (a 5 min sampling point was added for the intravenous administration group), respectively. The samples were placed in EDTA-K2 tubes and centrifuged at 11,000 rpm for 5 minutes. Plasma was separated and frozen at -20°C. • 3. Assay Information: LC/MS/MS was used to determine the concentration of the parent drug in rat/mouse plasma following intravenous and oral gavage administration of the test compound. Pharmacokinetic parameters in rat/mouse plasma were calculated for both administration routes, and the bioavailability of each compound in rats was also calculated. Table 5: Intravenous Pharmacokinetic Information of Representative Compounds

[3] = intravenous, single dose 2 mg/kg or 1 mg/kg (figure not given)

human Nav1.8 sodium channel, sequence (Q9Y5Y9 whole entry): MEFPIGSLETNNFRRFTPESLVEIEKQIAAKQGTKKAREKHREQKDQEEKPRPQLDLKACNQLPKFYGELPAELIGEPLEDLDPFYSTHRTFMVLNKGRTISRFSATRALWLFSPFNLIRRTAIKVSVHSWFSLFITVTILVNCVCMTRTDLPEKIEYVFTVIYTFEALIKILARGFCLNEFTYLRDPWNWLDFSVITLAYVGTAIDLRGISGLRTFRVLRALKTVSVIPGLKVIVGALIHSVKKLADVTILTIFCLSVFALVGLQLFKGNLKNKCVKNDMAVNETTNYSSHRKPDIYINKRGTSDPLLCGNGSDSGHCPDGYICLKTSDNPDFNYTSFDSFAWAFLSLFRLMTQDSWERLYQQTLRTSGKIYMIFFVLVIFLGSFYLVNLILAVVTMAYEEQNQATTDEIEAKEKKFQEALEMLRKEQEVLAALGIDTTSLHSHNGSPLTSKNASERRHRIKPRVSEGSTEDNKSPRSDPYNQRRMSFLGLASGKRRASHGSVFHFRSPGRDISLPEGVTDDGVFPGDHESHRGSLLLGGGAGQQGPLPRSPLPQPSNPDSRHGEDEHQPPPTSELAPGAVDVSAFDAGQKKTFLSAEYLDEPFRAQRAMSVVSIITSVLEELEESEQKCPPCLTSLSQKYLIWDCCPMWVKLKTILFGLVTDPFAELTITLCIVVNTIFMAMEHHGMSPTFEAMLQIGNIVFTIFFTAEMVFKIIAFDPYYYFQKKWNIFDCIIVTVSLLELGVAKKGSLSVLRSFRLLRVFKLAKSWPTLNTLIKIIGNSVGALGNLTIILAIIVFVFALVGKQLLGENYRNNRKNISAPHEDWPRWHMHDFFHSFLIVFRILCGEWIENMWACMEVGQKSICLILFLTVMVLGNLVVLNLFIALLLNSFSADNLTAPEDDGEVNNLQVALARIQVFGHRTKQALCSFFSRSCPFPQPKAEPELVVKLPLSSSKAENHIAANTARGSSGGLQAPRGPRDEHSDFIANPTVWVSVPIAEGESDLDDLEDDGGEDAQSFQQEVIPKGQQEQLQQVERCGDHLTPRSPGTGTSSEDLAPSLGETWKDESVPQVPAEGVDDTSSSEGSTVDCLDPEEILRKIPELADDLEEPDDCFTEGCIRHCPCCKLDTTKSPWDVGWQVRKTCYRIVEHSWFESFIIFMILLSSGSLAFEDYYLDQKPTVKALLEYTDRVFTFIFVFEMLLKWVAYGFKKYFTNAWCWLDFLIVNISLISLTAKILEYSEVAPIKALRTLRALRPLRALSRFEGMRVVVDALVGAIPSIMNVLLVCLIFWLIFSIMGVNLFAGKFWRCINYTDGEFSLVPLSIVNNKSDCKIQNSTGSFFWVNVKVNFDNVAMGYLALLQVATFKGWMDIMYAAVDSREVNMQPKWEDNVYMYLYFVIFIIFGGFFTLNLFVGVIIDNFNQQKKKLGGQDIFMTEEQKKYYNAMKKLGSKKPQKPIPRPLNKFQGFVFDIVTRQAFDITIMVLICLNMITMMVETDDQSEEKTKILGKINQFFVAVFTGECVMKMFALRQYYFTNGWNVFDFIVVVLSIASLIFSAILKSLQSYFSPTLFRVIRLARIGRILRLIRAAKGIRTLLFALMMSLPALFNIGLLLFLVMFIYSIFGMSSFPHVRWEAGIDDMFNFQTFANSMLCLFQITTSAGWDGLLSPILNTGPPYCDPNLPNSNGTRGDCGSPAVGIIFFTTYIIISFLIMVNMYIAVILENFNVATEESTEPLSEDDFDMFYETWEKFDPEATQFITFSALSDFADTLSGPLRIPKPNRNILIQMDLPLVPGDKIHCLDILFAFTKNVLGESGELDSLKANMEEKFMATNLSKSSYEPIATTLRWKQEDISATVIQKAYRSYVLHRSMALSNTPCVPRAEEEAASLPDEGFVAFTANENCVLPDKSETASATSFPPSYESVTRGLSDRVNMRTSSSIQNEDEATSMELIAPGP

CC1CN(c2nc(C(F)(F)F)c(Cl)cc2C(=O)Nc2ccc(F)c(C(N)=NO)c2)CCC1(F)F (single isomer, unassigned) [Compound I-40-P1, 5-chloro-2-(4,4-difluoro-3-methylpiperidin-1-yl)-N-(4-fluoro-3-(N'-hydroxyamidino)phenyl)-6-(trifluoromethyl)nicotinamide]
inhibition at 0.001 µM [1]: 59%

CC1CN(c2nc(C(F)(F)F)c(Cl)cc2C(=O)Nc2ccc(F)c(C(N)=NO)c2)CCC1(F)F (single isomer, unassigned) [Compound I-40-P2, 5-chloro-2-(4,4-difluoro-3-methylpiperidin-1-yl)-N-(4-fluoro-3-(N'-hydroxyamidino)phenyl)-6-(trifluoromethyl)nicotinamide]
inhibition Percent @1 nM [1]: 63%

Cc1nc(N2CCC(F)(F)C(C)C2)c(C(=O)Nc2ccc(F)c(C(N)=NO)c2)cc1Cl (single isomer, unassigned) [Compound I-41-P1, 5-chloro-2-(4,4-difluoro-3-methylpiperidin-1-yl)-N-(4-fluoro-3-(N'-hydroxyamidino)phenyl)-6-(methyl)nicotinamide]
inhibition at 0.001 µM [1]: 38%

Cc1nc(N2CCC(F)(F)C(C)C2)c(C(=O)Nc2ccc(F)c(C(N)=NO)c2)cc1Cl (single isomer, unassigned) [Compound I-41-P2, 5-chloro-2-(4,4-difluoro-3-methylpiperidin-1-yl)-N-(4-fluoro-3-(N'-hydroxyamidino)phenyl)-6-(methyl)nicotinamide]
inhibition Percent @1 nM [1]: 35%

Cc1nc(N2CCCC(F)(F)CC2)c(C(=O)Nc2ccc(F)c(C(=O)O)c2)cc1Cl [Compound I7-b, 5-(5-chloro-2-(4,4-difluoroazepan-1-yl)-6-methylnicotinamido)-2-fluorobenzoic acid]
inhibition at 0.03 µM [1]: 33%

Cc1nc(N2CCCC(F)(F)CC2)c(C(=O)Nc2ccc(F)c(C(=N)N)c2)cc1Cl [Compound I-2, N-(3-amidino-4-fluorophenyl)-5-chloro-2-(4,4-difluoroazepan-1-yl)-6-methylnicotinamide]
inhibition at 0.001 µM [1]: 79%

Cc1nc(N2CCCC(F)(F)CC2)c(C(=O)Nc2ccc(F)c(C(N)=NC#N)c2)cc1Cl [Compound I-3, 5-chloro-N-(3-(N'-cyanoamidino)-4-fluorophenyl)-2-(4,4-difluoroazepan-1-yl)-6-meth ylnicotinamide]
AUC(0-t) [2, 3]: 567 ng·h/mL
clearance [2, 3]: 29.7 mL/min/kg
half-life [2, 3]: 0.325 h
Vd [2, 3]: 0.442 L/kg
AUC(0-t) ([2]; oral gavage, 5mg/kg): 1770 ng·h/mL
Cmax ([2]; oral gavage, 5mg/kg): 381 ng/mL
Tmax ([2]; oral gavage, 5mg/kg): 6 h
half-life ([2]; oral gavage, 5mg/kg): 2.08 h
bioavailability ([2]; oral gavage, 5mg/kg): 62.4%

Cc1nc(N2CCCC(F)(F)CC2)c(C(=O)Nc2ccc(Cl)c(C(N)=NO)c2)cc1Cl [Compound I-5, 5-chloro-2-(4,4-difluoroazepan-1-yl)-N-(4-chloro-3-(N'-hydroxyamidino)phenyl)-6-me thylnicotinamide]
inhibition at 0.001 µM [1]: 82%

Cc1nc(N2CCCC(F)(F)CC2)c(C(=O)Nc2ccc(Cl)c(C(=N)N)c2)cc1Cl [Compound I-6, N-(3-amidino-4-chlorophenyl)-5-chloro-2-(4,4-difluoroazepan-1-yl)-6-methylnicotinamide]
inhibition at 0.001 µM [1]: 65%

Cc1ccc(NC(=O)c2cc(Cl)c(C)nc2N2CCCC(F)(F)CC2)cc1C(N)=NO [Compound I-7, 5-chloro-2-(4,4-difluoroazepan-1-yl)-N-(3-(N'-hydroxyamidino)-4-methylphenyl)-6-me thylnicotinamide]
inhibition at 0.01 µM [1]: 83%

Cc1ccc(NC(=O)c2cc(Cl)c(C)nc2N2CCCC(F)(F)CC2)cc1C(=N)N [Compound I-8, N-(3-amidino-4-methylphenyl)-5-chloro-2-(4,4-difluoroazepan-1-yl)-6-methylnicotinamide]
inhibition at 0.001 µM [1]: 51%

COc1ccc(NC(=O)c2cc(Cl)c(C)nc2N2CCCC(F)(F)CC2)cc1C(=N)N [Compound I-10, N-(3-amidino-4-methoxyphenyl)-5-chloro-2-(4,4-difluoroazepan-1-yl)-6-methylnicoti namide]
inhibition at 0.001 µM [1]: 32%

Cc1nc(N2CCCC(F)(F)CC2)c(C(=O)Nc2cccc(C(N)=NO)c2)cc1Cl [Compound I-11, 5-chloro-2-(4,4-difluoroazepan-1-yl)-N-(3-(N'-hydroxyamidino)phenyl)-6-methylnicoti namide]
inhibition at 0.001 µM [1]: 90%

Cc1nc(N2CCCC(F)(F)CC2)c(C(=O)Nc2cccc(C(=N)N)c2)cc1Cl [Compound I-12, N-(3-amidinophenyl)-5-chloro-2-(4,4-difluoroazepan-1-yl)-6-methylnicotinamide]
IC50 ([1]; Nav1.8 channel current, HEK293 cells stably expressing human Nav1.8, clamped at -60 mV, mean ± SEM, read-out: IC50): 0.26 ± 0.06 nM
inhibition at 0.001 µM [1]: 73%

Cc1nc(N2CCCC(F)(F)CC2)c(C(=O)Nc2ccc(C(N)=NO)cc2)cc1Cl [Compound I-13, 5-chloro-2-(4,4-difluoroazepan-1-yl)-N-(4-(N'-hydroxyamidino)phenyl)-6-methylnicoti namide]
inhibition at 0.001 µM [1]: 85%

Cc1nc(N2CCCC(F)(F)CC2)c(C(=O)Nc2ccnc(C(N)=NO)c2)cc1Cl [Compound I-15, 5-chloro-2-(4,4-difluoroazepan-1-yl)-N-(2-(N'-hydroxyamidinoimino)pyridin-4-yl)-6-m ethylnicotinamide]
inhibition at 0.001 µM [1]: 66%

Cc1nc(N2CCCC(F)(F)CC2)c(C(=O)Nc2ccc(F)c(C(=O)NC(=N)N)c2)cc1Cl [Compound I-17, N-(3-(amidinocarbamoyl)-4-fluorophenyl)-5-chloro-2-(4,4-difluoroazepan-1-yl)-6-met hylnicotinamide]
inhibition at 0.03 µM [1]: 99%

Cc1nc(N2CCCC(F)(F)CC2)c(C(=O)Nc2cccc(C(=O)NC(=N)N)c2)cc1Cl [Compound I-18, N-(3-(amidinocarbamoyl)phenyl)-5-chloro-2-(4,4-difluoroazepan-1-yl)-6-methylnicoti namide]
inhibition at 0.03 µM [1]: 90%

Cc1nc(N2CCCC(F)(F)CC2)c(C(=O)Nc2ccc(F)c(NC(=N)N)c2)cc1Cl [Compound I-19, 5-chloro-2-(4,4-difluoroazepan-1-yl)-N-(4-fluoro-3-guanidinophenyl)-6-methylnicotin amide]
inhibition at 0.001 µM [1]: 49%

Cc1nc(N2CCCCCC2)c(C(=O)Nc2cccc(C(=N)N)c2)cc1Cl [Compound I-23, 2-(azepan-1-yl)-N-(3-amidinophenyl)-5-chloro-6-methylnicotinamide]
inhibition at 0.03 µM [1]: 95%

C#Cc1cc(C(=O)Nc2ccc(F)c(C(N)=NO)c2)c(N2CCCC(F)(F)CC2)nc1C [Compound I-26, 2-(4,4-difluoroazepan-1-yl)-5-ethynyl-N-(4-fluoro-3-(N'-hydroxyamidino)phenyl)-6-m ethylnicotinamide]
inhibition at 0.01 µM [1]: 76%

Cc1nc(N2CCCC(F)(F)CC2)c(C(=O)Nc2ccc(F)c(C(N)=NO)c2)cc1C(F)(F)F [Compound I-27, 2-(4,4-difluoroazepan-1-yl)-N-(4-fluoro-3-(N'-hydroxyamidino)phenyl)-6-methyl-5-(trifluoromethyl)nicotinamide]
inhibition at 0.01 µM [1]: 83%

Cc1ccc(C(=O)Nc2ccc(F)c(C(N)=NO)c2)c(N2CCCC(F)(F)CC2)n1 [Compound I-29, 2-(4,4-difluoroazepan-1-yl)-N-(4-fluoro-3-(N'-hydroxyamidino)phenyl)-6-methylnicoti namide]
inhibition at 0.01 µM [1]: 57%

O=C(Nc1ccc2c(c1)S(=O)(=O)NC2)c1c(N2CCCC(F)(F)CC2)ccc(C(F)(F)F)c1Cl [Compound I-31, 2-chloro-6-(4,4-difluoroazepan-1-yl)-N-(1,1-dioxo-2,3-dihydrobenzisothiazol-6-yl)-3-tr ifluoromethylbenzamide]
inhibition at 0.001 µM [1]: 46%

NC(=NO)c1cc(NC(=O)c2c(N3CCCC(F)(F)CC3)ccc(C(F)(F)F)c2Cl)ccc1F [Compound I-32, 2-chloro-6-(4,4-difluoroazepan-1-yl)-N-(4-fluoro-3-(N'-hydroxyamidino)phenyl)-3-(trifluoromethyl)benzamide]
inhibition at 0.001 µM [1]: 50%

N#CN=C(N)c1cc(NC(=O)c2cc(Cl)c(C(F)(F)F)nc2N2CCCC(F)(F)CC2)ccc1F [Compound I-37, 5-chloro-N-(3-(N'-cyanoamidino)-4-fluorophenyl)-2-(4,4-difluoroazepan-1-yl)-6-triflu oromethylnicotinamide]
inhibition at 0.01 µM [1]: 62%

NC(=NO)c1cc(NC(=O)c2cc(Cl)c(C(F)F)nc2N2CCCC(F)(F)CC2)ccc1F [Compound I-38, 5-chloro-2-(4,4-difluoroazepan-1-yl)-6-(difluoromethyl)-N-(4-fluoro-3-(N'-hydroxyamidino)phenyl)nicotinamide]
inhibition at 0.001 µM [1]: 33%

Cc1cc(F)ccc1Oc1cc(C(F)(F)F)ccc1C(=O)Nc1cc[nH]c(=O)c1 [VX-150, reference compound]
AUC(0-t) [2, 3]: 2510 ng·h/mL
clearance [2, 3]: 13.9 mL/min/kg
half-life [2, 3]: 1.08 h
Vd [2, 3]: 1.09 L/kg
AUC(0-t) ([2]; oral gavage, 10mg/kg): 3810 ng·h/mL
Cmax ([2]; oral gavage, 10mg/kg): 723 ng/mL
Tmax ([2]; oral gavage, 10mg/kg): 2 h
half-life ([2]; oral gavage, 10mg/kg): 2.88 h
bioavailability ([2]; oral gavage, 10mg/kg): 30.4%
